The values that follow come from PMC7987348, “Structural basis for human TRPC5 channel inhibition by two distinct inhibitors” (eLife, 2021).

One may read the Hill slope as a measure of the steepness of the concentration-response curve.

The test addresses T1, hTRPC5 S495A (Homo sapiens, UniProt Q9UL62, S495A).
T1 construct: We use full-length nontagged hTRPC5 construct for FLIPR assay unless indicated otherwise; expressed in transfected cells; host or cells: AD293
T1 sequence (Q9UL62 1-973 S495A): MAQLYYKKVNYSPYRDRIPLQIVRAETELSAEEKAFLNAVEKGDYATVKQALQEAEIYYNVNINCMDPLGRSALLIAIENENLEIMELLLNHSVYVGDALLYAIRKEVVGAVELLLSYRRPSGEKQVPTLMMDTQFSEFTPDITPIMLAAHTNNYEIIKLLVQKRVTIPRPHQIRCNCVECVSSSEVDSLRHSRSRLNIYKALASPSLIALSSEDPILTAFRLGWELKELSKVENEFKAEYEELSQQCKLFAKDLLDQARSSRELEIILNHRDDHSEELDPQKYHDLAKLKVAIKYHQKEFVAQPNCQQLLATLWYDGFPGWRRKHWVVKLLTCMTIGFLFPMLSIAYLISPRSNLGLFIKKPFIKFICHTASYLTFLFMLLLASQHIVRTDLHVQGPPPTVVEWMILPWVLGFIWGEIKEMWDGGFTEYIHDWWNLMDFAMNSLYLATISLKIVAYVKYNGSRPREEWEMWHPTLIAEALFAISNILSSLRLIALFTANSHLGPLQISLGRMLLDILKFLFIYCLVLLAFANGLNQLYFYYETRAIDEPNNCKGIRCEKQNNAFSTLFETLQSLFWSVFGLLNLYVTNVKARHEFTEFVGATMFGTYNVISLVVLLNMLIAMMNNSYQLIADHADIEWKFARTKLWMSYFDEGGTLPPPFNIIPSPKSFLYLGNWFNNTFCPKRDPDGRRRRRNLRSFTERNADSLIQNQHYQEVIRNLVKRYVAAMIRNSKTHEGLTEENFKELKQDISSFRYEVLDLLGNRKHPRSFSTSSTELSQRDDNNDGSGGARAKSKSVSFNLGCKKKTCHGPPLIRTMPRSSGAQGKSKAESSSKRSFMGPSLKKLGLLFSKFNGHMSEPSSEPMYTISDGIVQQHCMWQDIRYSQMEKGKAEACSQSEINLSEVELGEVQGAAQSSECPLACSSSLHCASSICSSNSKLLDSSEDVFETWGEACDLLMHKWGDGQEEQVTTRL
Briefly: FLIPR calcium assay, hTRPC5 mutant S495A. Type of test: cell-based. On the procedure: […]. Then the suspended cell culture was further diluted for 5.4- to 7-fold with culture medium and seeded onto black well, clear bottom, poly-D-lysine-coated 96-well plate (Costar) and cultured overnight. We use full-length nontagged hTRPC5 construct for FLIPR assay unless indicated otherwise. hTRPC5 plasmids were transfected into AD293 cells (60-80% confluence) with PEI. 30–40 hr post-transfection, culture medium was discarded and cells were incubated with 50 μl per well of 4 μM Rhod-2/AM (AAT Bioquest) in TARODES’s buffer (10 mM HEPES, 150 mM NaCl, 4 mM KCl, 2 mM MgCl2, 2 mM CaCl2, 11 mM glucose, pH 7.4) supplemented with 0.02% Pluronic F-127 (Sigma) for 5 min in dark at room temperature. Then dye was removed and replaced with 50 μl of TARODE’s buffer per well. The application of compounds and detection of intracellular calcium elevation were performed using FLIPR-TETRA (Molecular Devices) at room temperature (25–27°C). Fluorescence signals were read with excitation/emission at 510–545/565–625 nm.
[…]. Then fluorescence was measured for 300 s.
Buffer A contains 2× concentration of working concentration of inhibitor. […]. for control-Min, both buffer A and buffer B were replaced by TARODE’s buffer.
[…]; the average of fluorescence value of last 20 time points was considered as the ‘end fluorescence’. The value of ‘end fluorescence’ minus ‘start fluorescence’ was considered as ‘signal value’ for each well. […].
Three independent experiments were performed on different days (biological replicates), with each experiment containing three replicates (technique replicates).

Structures are written as SMILES. Read-outs that look alike come from different tables or passages of the source.

Take `Clc1ccc(Cn2c(CN3CCCC3)nc3ccccc32)cc1` [CMZ, clemizole]: where the note is “CMZ”, the Hill slope is recorded as −1.21. Besides, the IC50 was 3.03 µM (CMZ, 14 mM extracellular calcium, read-out: IC50) and 3.02 µM (CMZ, log of IC50 in μM, logIC50 ± SEM, n = 3, read-out: LogIC50 (converted)). Further, where the note is “read-out: normalized RFU (% WT), Clemizole 0.200195 μM, 14 mM Ca2+, each column one independent experiment”, the remaining activity at 0.200195 µM came to 83%. For the same molecule, the remaining activity at 0.400391 µM (read-out: normalized RFU (% WT), Clemizole 0.400391 μM, 14 mM Ca2+, each column one independent experiment) was determined as 78.4%. For the same molecule, for the setting “read-out: normalized RFU (% WT), Clemizole 0.800781 μM, 14 mM Ca2+, each column one independent experiment”, the remaining activity at 0.800781 µM turned out to be 82%. The remaining activity at 1.60156 µM (read-out: normalized RFU (% WT), Clemizole 1.60156 μM, 14 mM Ca2+, each column one independent experiment) amounted to 79.3%. In addition, the remaining activity at 3.20312 µM (read-out: normalized RFU (% WT), Clemizole 3.20312 μM, 14 mM Ca2+, each column one independent experiment) stood at 50.6%. For the same molecule, the remaining activity at 6.40625 µM (read-out: normalized RFU (% WT), Clemizole 6.40625 μM, 14 mM Ca2+, each column one independent experiment) is 46.5%. For the same molecule, the remaining activity at 12.8125 µM (read-out: normalized RFU (% WT), Clemizole 12.8125 μM, 14 mM Ca2+, each column one independent experiment) amounted to 40.3%.
